In patent US8236143B2, “Controlling chemical reactions by spectral chemistry and spectral conditioning” (GR Intellectual Reserve, LLC, priority 2002, dated 2012):

Assays:
[1] = Phenyl salicylate solubility in neon-lamp conditioned vs unconditioned acetone at room temperature; format: physicochemical; settings: about 20 hours equilibration
Experimental: Acetone (about 1 ml) was pipetted into small glass test tubes and stoppers placed in the tube. Tubes were placed under a neon lam; (about 8m/cm^2) in an otherwise dark room for about 1-5 hours at about 28° C. ambient temperature. Tubes were also placed simultaneously in an incubator at 28° C. for about 1.5 hours.
Phenyl solicylate (about 3.50 grams) was added to each tube leaving a layer undissolved on the bottom of each tube. The solutions were allowed to equilibrate (about 20 hours). Solution was filtered over the crystals and 0.500 ml pipetted into fresh tubes.
After the acetone evaporated, dry weights of phenyl solicylate per ml dissolved in conditioned and unconditioned acetone were determined.

[2] = Sucrose solubility in sodium-lamp conditioned vs control water at room temperature (22° C.); format: physicochemical
Experimental: Beaker “II” was placed under another sodium lamp 12 as like Beaker “KK”; and Beaker “JJ” was placed in the same incubator as Beaker “LL”. […] Specifically, Beaker “GG” was placed under another sodium lamp 12 as like Beaker “KK” and Beaker “II”; and Becker “HH” was placed into the same incubator as Beaker “LL” and “II”.

O=C(Oc1ccccc1)c1ccccc1O [phenyl salicylate]
Average amount of phenyl salicylate dissolved ([1]; acetone conditioned under neon lamp): 0.78 g/mL
Average amount of phenyl salicylate dissolved ([1]; unconditioned acetone (incubator 28° C.)): 0.68 g/mL

OC[C@H]1O[C@@](CO)(O[C@H]2O[C@H](CO)[C@@H](O)[C@H](O)[C@H]2O)[C@@H](O)[C@@H]1O [Sucrose]
Weight (dry sucrose weight per 100 ml solution) ([2]; Beaker GG, water under sodium lamp one hour, solution at 23.5° C.): 49 g/100 ml
Weight (dry sucrose weight per 100 ml solution) ([2]; Beaker HH, control water 1 hour in incubator, solution at 23° C.): 49 g/100 ml
Weight (dry sucrose weight per 100 ml solution) ([2]; Beaker II, water under sodium lamp two hours, solution at 23.5° C.): 47 g/100 ml
Weight (dry sucrose weight per 100 ml solution) ([2]; Beaker JJ, control water 2 hours in incubator, solution at 23.5° C.): 44 g/100 ml
Weight (dry sucrose weight per 100 ml solution) ([2]; Beaker KK, water under Na lamp three hours, solution at 23.5° C.): 46 g/100 ml
Weight (dry sucrose weight per 100 ml solution) ([2]; Beaker LL, control water 3 hours in incubator, solution at 23.5° C.): 49 g/100 ml
more sucrose dissolved by conditioned water than by untreated control water ([2]; two hours exposure of water to the sodium lamp): about 7%
